According to patent publication US10280170B2, “Substituted 4,5,6,7-tetrahydro-pyrazolo[1,5-a]pyrazine derivatives and 5,6,7,8-tetrahydro-4H-pyrazolo[1,5-a][1,4]diazepine derivatives as Ros1 inhibitors” (Janssen Pharmaceutica NV, priority 2014, dated 2019):
Like-named read-outs stand apart in the source and are kept apart here.

Legend:
[1] = target: T1, Ba/F3 cells containing Ros1 wild-type protein (Homo sapiens, UniProt P08922, cells depend on it, form not given); experiment: Ba/F3-Ros1 cell proliferation assay, wild-type Ros1; assay type: cell-based, murine; conditions: without IL-3
T1 construct: The background only speaks of 'a number of different unrelated proteins' and names SLC34A2-ROS1 for HCC78 cells
T1 sequence (P08922 whole entry, stated change not applied): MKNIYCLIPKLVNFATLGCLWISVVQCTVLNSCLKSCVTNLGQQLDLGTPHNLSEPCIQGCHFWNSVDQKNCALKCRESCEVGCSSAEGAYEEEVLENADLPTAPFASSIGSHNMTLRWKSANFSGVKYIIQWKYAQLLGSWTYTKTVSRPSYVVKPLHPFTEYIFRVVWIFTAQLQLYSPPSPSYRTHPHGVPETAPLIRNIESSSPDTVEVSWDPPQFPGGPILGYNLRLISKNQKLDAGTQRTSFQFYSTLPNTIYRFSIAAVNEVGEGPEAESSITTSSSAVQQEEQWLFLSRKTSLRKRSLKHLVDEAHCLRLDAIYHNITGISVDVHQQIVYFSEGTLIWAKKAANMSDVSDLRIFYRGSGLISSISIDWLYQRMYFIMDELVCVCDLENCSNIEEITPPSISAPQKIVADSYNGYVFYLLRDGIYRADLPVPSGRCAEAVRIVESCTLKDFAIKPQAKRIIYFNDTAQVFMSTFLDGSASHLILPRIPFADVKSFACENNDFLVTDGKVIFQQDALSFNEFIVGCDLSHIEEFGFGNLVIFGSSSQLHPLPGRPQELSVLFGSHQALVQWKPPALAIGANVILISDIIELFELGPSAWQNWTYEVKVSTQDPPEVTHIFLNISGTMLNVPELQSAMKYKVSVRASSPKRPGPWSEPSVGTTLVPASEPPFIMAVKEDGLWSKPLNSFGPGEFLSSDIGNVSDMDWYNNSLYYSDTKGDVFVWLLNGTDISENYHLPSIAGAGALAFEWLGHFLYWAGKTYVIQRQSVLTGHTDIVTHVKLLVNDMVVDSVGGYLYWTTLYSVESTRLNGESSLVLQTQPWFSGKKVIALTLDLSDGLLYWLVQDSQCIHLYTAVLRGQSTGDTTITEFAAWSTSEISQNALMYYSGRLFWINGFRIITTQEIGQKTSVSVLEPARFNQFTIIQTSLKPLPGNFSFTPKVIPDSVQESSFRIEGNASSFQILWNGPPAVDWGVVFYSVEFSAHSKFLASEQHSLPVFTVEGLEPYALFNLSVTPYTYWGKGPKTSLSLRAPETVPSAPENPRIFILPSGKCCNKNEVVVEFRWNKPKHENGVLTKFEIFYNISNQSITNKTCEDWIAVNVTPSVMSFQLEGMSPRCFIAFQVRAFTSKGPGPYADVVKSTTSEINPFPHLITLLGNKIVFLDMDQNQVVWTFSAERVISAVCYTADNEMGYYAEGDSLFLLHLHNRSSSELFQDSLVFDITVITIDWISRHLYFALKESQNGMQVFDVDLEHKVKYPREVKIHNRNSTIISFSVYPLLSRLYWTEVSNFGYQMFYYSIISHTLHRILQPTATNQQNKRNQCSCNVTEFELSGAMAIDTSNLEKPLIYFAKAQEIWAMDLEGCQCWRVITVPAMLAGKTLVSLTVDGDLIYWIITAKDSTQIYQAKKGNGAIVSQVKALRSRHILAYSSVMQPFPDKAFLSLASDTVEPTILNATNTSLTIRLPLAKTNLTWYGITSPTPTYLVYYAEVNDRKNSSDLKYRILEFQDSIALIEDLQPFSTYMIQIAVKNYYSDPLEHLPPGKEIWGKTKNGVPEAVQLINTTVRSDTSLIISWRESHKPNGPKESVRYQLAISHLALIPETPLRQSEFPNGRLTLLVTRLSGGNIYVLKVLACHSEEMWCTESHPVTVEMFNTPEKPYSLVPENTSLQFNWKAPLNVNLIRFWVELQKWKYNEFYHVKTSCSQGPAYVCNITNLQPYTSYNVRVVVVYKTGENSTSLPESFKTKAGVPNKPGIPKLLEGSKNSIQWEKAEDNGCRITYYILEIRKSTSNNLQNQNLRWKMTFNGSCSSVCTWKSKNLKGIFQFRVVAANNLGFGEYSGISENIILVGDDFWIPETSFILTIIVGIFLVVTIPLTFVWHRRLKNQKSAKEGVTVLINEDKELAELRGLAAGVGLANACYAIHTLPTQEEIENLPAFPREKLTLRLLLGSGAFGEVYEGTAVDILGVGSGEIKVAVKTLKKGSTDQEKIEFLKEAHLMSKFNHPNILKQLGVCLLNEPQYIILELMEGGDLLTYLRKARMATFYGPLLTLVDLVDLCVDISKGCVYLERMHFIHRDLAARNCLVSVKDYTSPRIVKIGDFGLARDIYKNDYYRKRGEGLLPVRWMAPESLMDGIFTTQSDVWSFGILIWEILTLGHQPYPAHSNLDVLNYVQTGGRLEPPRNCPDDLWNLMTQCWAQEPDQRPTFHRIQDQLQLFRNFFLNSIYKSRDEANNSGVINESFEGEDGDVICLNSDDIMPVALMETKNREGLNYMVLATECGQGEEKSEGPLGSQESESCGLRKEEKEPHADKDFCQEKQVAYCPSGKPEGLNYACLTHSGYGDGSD
Protocol: (§1) Ba/F3-Ros1 Cell Proliferation Assay
(§2) This assay was carried out with Ba/F3 cells containing three different versions of Ros1: the wild-type protein, protein with a mutation at the gatekeeper residue (L2026M), and protein with a mutation identified in a tumor from a patient that became resistant to crizotinib (Xalkori®) treatment (G2032R). Compounds were solubilized in 100% DMSO (dimethyl sulfoxide) and sprayed into polystyrene, tissue culture treated 384-well plates. A 50 μl volume of cell culture medium (phenol red free RPMI-1640, 10% FBS (fetal bovine serum), 2 mM L-Glutamine) containing 20000 Ba/F3-Ros1 cells was added to each well and the plates were placed in an incubator at 37° C. and 5% CO2. After 24 hours, 10 μl of Alamar Blue solution (0.5 mM K3Fe(CN)6, 0.5 mM K4Fe(CN)6, 0.15 mM Resazurin and 100 mM Phosphate Buffer) was added to the wells, incubated for 4 hours at 37° C. and 5% CO2 before RFU's (Relative Fluorescence Units) (ex. 540 nm., em. 590 nm.) were measured in a fluorescence plate reader.

[2] = test system: Ba/F3 cells containing Ros1 wild-type protein + IL-3; experiment: Ba/F3-Ros1 cell proliferation counter-screen, wild-type protein in the presence of 10 ng/ml murine IL-3; assay type: cell-based; conditions: Mus musculus, BaF3, 24 h, read-out: BaF3-ROS1 + IL3 pIC50 (converted)
Protocol: as §2
As a counter-screen the same experiment was performed for the wild-type protein in the presence of 10 ng/ml murine IL-3.

Ros1 enzyme = target: T2, Ros1 enzyme (Homo sapiens, UniProt P08922); experiment: Ros1 enzymatic assay; assay type: biochemical; conditions: Ros1 enzymatic assay; read-out: ROS1 pIC50 (converted)
T2 construct: 0.5 μg/ml Ros1 enzyme
T2 sequence (P08922 28-2347): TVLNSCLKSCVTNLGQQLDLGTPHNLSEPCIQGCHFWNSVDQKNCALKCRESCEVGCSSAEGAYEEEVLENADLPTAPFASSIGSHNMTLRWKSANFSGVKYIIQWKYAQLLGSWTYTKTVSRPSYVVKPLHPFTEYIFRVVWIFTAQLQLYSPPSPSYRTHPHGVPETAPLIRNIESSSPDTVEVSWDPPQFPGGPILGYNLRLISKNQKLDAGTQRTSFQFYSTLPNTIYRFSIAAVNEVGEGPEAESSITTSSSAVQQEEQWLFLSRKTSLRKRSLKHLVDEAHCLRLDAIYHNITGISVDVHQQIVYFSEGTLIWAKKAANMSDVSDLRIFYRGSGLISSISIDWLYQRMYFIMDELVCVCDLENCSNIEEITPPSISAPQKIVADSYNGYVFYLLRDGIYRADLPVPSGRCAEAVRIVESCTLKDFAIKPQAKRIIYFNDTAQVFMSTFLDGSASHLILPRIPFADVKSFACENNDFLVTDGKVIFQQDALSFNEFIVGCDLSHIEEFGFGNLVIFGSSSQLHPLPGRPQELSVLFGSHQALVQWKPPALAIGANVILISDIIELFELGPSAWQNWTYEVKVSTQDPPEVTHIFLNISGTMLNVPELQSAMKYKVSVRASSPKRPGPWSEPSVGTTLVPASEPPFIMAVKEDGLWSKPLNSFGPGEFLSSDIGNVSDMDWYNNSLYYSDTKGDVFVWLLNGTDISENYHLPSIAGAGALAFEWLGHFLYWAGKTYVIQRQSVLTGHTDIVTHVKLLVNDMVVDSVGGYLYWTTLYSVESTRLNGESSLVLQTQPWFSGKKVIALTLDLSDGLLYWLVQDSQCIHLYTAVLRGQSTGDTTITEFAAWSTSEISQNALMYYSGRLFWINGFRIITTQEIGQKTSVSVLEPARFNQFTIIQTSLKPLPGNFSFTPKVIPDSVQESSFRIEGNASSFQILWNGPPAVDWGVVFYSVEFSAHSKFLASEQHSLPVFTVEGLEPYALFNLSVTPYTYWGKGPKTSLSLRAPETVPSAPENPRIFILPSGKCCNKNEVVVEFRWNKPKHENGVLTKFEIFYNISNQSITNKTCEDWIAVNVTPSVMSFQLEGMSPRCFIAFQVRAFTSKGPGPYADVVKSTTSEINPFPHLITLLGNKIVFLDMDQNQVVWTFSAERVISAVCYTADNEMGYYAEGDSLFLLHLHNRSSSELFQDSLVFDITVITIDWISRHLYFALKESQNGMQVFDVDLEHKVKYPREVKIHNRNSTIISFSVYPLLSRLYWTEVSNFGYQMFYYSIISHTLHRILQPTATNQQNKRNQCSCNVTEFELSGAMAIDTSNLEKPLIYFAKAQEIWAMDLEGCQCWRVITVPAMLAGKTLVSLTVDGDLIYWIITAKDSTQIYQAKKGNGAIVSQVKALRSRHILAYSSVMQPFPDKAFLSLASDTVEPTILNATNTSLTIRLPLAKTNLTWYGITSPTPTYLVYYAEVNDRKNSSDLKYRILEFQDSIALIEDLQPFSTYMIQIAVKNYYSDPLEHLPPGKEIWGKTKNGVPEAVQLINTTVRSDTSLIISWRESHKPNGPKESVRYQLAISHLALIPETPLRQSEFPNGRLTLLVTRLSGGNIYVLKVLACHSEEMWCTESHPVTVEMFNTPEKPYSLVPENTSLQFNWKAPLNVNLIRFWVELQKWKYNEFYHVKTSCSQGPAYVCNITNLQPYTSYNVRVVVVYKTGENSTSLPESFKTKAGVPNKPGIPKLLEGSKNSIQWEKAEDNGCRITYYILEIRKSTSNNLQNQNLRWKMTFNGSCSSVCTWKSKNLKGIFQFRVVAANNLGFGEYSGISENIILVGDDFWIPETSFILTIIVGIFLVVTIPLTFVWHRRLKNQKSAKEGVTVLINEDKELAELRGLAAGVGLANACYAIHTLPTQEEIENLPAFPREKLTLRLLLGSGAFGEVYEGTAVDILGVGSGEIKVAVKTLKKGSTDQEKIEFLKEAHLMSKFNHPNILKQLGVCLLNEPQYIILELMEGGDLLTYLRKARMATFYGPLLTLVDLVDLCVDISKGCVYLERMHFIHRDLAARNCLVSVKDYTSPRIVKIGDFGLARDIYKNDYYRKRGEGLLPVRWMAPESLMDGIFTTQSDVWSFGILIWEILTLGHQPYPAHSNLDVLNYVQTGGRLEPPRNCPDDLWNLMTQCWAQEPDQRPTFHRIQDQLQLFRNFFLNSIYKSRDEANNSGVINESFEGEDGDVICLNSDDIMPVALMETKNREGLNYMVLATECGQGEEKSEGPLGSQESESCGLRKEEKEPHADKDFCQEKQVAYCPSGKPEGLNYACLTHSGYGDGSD
Protocol: Compounds were spotted onto white 384-well Proxiplate plus plates (Perkin Elmer) to which 5 μl of enzyme mix (0.5 μg/ml Ros1 enzyme, 50 mM Tris-HCl pH7.5, 1 mM EGTA, 10 mM MgCl2, 0.01% Tween-20) and 5 μl of substrate mix (6 μg/ml IRS-Tide [American Peptide Company], 20 μM ATP, 13.33 μCi/ml ATP (adenosine 5′-triphosphate) P^33, 50 mM Tris-HCl pH7.5, 1 mM EGTA (ethylene glycol-bis(2-aminoethylether)-N,N,N′,N′-tetraacetic acid), 10 mM MgCl2, 0.01% Tween-20) were added. After incubation for 120 minutes at room temperature, 10 μl of stop reaction buffer (5 mM EDTA, 50 μM ATP, 0.1% BSA (bovine serum albumin), 0.1% Triton X-100, 50 mM Tris-HCl pH7.5, 1 mM EGTA, 10 mM MgCl2, 0.01% Tween-20) containing 2 mg/ml streptavidin coupled polystyrene imaging beads (Amersham Biosciences) was added and incubated for 15 minutes at room temperature. Plates were centrifuged for 3 minutes at 1500 rpm and signals detected in a LEADseeker imaging system (GE).

[3] = target: Ba/F3 cells containing Ros1 with a mutation at the gatekeeper residue (L2026M) (Homo sapiens, UniProt P08922, L2026M, cells depend on it, form not given); experiment: Ba/F3-Ros1 cell proliferation assay, L2026M gatekeeper mutant; assay type: cell-based, murine; conditions: without IL-3
Sequence of Ba/F3 cells containing Ros1 with a mutation at the gatekeeper residue (L2026M) (P08922 whole entry L2026M, form open): as the sequence (P08922 whole entry, stated change not applied) above, with L2026M counted along it
Protocol: as §1, §2

[4] = counter-screen, wild-type, 10 ng/ml murine IL-3

Structure (SMILES) | melting point [°C] | BaF3-ROS1-IL3 pIC50 [1] | CC50 [2] [nM] | IC50 (Ros1 enzyme) [nM] | Ba/F3 Ros1 L2026M (-IL-3) pIC50 [3] | CC50 [2, 4] [nM]
COc1cc(OCc2ccc(C(C)C)cc2)ccc1-c1c(-c2ccncc2)nn2c1C(=O)NCC2 [Compound 34] | 276 | 6.6 | > 10000 | 316 |  | 
CC(C)Oc1cc(-c2c(-c3ccncc3)nn3c2C(=O)NCC3)ccc1OCc1ccc(C(C)C)cc1 [Compound 37] | 206 | 5.4 | > 10000 | 2510 |  | 
CC(C)c1ccc(COc2ccc(-c3c(-c4ccncc4)nn4c3C(=O)N(CCC#N)CC4)cc2)cc1 [Compound 57] | 158 | 7.7 | > 10000 | 25.1 |  | 
[2H]C([2H])(O)C([2H])([2H])N1CCn2nc(-c3ccncc3)c(-c3ccc(OCc4ccc(C(C)C)cc4)cc3)c2C1=O [Compound 67] | 179 | 7.9 | > 10000 | 25.1 | 7.1 | 
COc1cc(COc2ccc(-c3c(-c4ccncc4)nn4c3C(=O)NCC4)cc2)ccc1C(C)C [Compound 80] | 232 | 6.9 | > 10000 | 126 |  | 
CC(C)c1ccc(COc2ccc(-c3c(-c4ccncc4)nn4c3C(=O)N(CC(O)CO)CC4)cc2)c(F)c1F (stereo not drawn) [Compound 102] | 191 | 6.7 |  | 794 | 6.4 | 
COCCOc1cc(COc2ccc(-c3c(-c4ccncc4)nn4c3C(=O)NCC4)cc2)ccc1C [Compound 104] | 190 | 6.1 | > 10000 | 1260 |  | 
CCC(C)c1ccc(COc2ccc(-c3c(-c4ccncc4)nn4c3C(=O)NCC4)cc2)cc1 (stereo not drawn) [Compound 106] | 229 | 7.5 | > 10000 | 25.1 |  | 
CC(C)Cc1ccc(COc2ccc(-c3c(-c4ccncc4)nn4c3C(=O)NCC4)cc2)cc1 [Compound 108] | 233 | 7.0 | > 10000 | 126 |  | 
CC(C)c1cccc(COc2ccc(-c3c(-c4ccncc4)nn4c3C(=O)NCC4)cc2)c1 [Compound 110] | 268 | 6.9 | > 10000 | 126 |  | 
COc1cccc(COc2ccc(-c3c(-c4ccncc4)nn4c3C(=O)NCC4)cc2)c1 [Compound 113] | 242 | 6.0 |  | 794 |  | > 10000
CC(C)Oc1ccc(COc2ccc(-c3c(-c4ccncc4)nn4c3C(=O)NCC4)cc2)cc1 [Compound 114] | 252 | 6.4 | > 10000 | 501 |  | 
O=C1NCCn2nc(-c3ccncc3)c(-c3ccc(OCc4ccc(OC(F)F)cc4)cc3)c21 [Compound 118] | 250 | 7.1 | > 10000 | 158 |  | 
O=C1NCCn2nc(-c3ccncc3)c(-c3ccc(OCc4cccc(C(F)(F)F)c4)cc3)c21 [Compound 120] | 293 | 6.6 | > 10000 | 251 |  | 
N#Cc1cccc(COc2ccc(-c3c(-c4ccncc4)nn4c3C(=O)NCC4)cc2)c1 [Compound 124] | 238 | 5.7 | > 10000 | 2000 |  | 
CC(C)(CO)c1ccc(COc2ccc(-c3c(-c4ccncc4)nn4c3C(=O)NCC4)cc2)cc1 [Compound 125] | 280 | 6.7 | > 10000 | 316 |  | 

Structure (SMILES) | melting point [°C] | BaF3-ROS1-IL3 pIC50 [1] | CC50 [2] [nM] | IC50 (Ros1 enzyme) [nM] | Ba/F3 Ros1 L2026M (-IL-3) pIC50 [3] | CC50 [2, 4] [nM]
CC(CO)c1ccc(COc2ccc(-c3c(-c4ccncc4)nn4c3C(=O)NCC4)cc2)cc1 (stereo not drawn) [Compound 127] | 259 | 6.6 | > 10000 | 398 |  | 
O=C1NCCn2nc(-c3ccncc3)c(-c3ccc(OCc4ccccc4)cc3)c21 [Compound 130] | 260 | 5.8 | > 10000 | 3160 |  | 
COC(=O)c1cccc(COc2ccc(-c3c(-c4ccncc4)nn4c3C(=O)NCC4)cc2)c1 [Compound 131] | 222 | 6.2 | > 10000 | 631 |  | 
N#Cc1ccc(COc2ccc(-c3c(-c4ccncc4)nn4c3C(=O)NCC4)cc2)cc1Cl [Compound 141] | 257 | 6.4 | > 10000 | 631 |  | 
COc1ccc(COc2ccc(-c3c(-c4ccncn4)nn4c3C(=O)NCC4)cc2)cc1 [Compound 157] | 264 | 6.1 | > 10000 | 1000 |  | 
O=C1NCCn2nc(-c3ccncn3)c(-c3ccc(OCc4ccc(C5CC5)cc4)cc3)c21 [Compound 166] | 268 | 6.9 |  | 63.1 |  | > 10000
CC(C)c1ccc(COc2ccc(-c3c(-c4cc[n+]([O-])cc4)nn4c3C(=O)NCC4)cc2)cc1 [Compound 170] | 227 | 5.2 |  | 6310 |  | > 10000
CC(C)NC(=O)CN1CCn2nc(-c3ccncc3)c(-c3ccc(OCc4ccc(C(C)C)cc4)cc3)c2C1 [Compound 178] | 188 | 6.6 |  | 200 |  | > 10000
c1cc(-c2nn3c(c2-c2ccc(OCc4ccc(C5CC5)nc4)cc2)CNCC3)ccn1 [Compound 186] | 195 | 6.2 |  | 1000 |  | > 10000
CC1CNCc2c(-c3ccc(OCc4ccc(C5CC5)cc4)cc3)c(-c3ccncc3)nn21 (stereo not drawn) [Compound 197] | 153 | 5.8 |  | 794 |  | > 10000
CC(C)c1ccc(COc2ccc(-c3c(-c4ccncc4)nn4c3CN(CCN)CC4)cc2)cc1 [Compound 210] | 197 | 6.3 |  | 63.1 |  | 6310
CC(C)c1ccc(COc2ccc(-c3c(-c4ccncn4)nn4c3CNCC4)cc2)cc1 [Compound 219] | 150 | 6.0 |  | 1260 |  | > 10000
CC(C)c1ccc(COc2ccc(-c3c(-c4ncnc5[nH]ccc45)nn4c3C(=O)NCC4)cc2)cc1 [Compound 222] | 238 | 7.0 | > 10000 | 200 |  | 
COc1ncc(COc2ccc(-c3c(-c4ccncc4)nn4c3C(=O)NCC4)cc2)cn1 [Compound 229] | 248 | <5 |  | > 10000 |  | > 10000
N#Cc1ncc(COc2ccc(-c3c(-c4ccncc4)nn4c3C(=O)NCC4)cc2)cc1Cl [Compound 230] | 277 | 5.2 |  | > 10000 |  | > 10000
CC(C)c1ccc(COc2ccc(-c3c(-c4ccncc4)nn4c3CNC(=O)C4)cc2)cc1 [Compound 237] | 281 | 6.8 | > 10000 | 794 |  | 
